Activity calls are given as the source filed them. The rule behind the calls is not given here.

Polymyxin IC50, polymyxin IC50 shift difference (WT - phoP-) and polymyxin IC50 shift data for 6 molecules are collected here from PubChem BioAssay AID2811 (Southern Research Specialized Biocontainment Screening …, 2010).

For the experiment, the system named is S. Typhi WT vs phoP-, polymyxin IC50 shift, OD600 24 h. The experiment can be described thus: polymyxin IC50 shift in S. Typhi, Salmonella typhi, set 2 (AID 2811). The following applies: stronger effect = lower value; for polymyxin IC50 shift difference (WT - phoP-) / polymyxin IC50 shift: at 150 µM.
The mark [1] stands for this setting: measured here: phoP- strain shift.
[2] abbreviates: measured here: wild-type strain shift.

As to `O=C(Nc1ccc(Br)cc1)N1CCCN(Cc2ccccc2F)C1`, the polymyxin IC50 shift difference (WT - phoP-) was -5.49 (inactive). The polymyxin IC50 (WT polymyxin IC50 at 150 uM) was found to be 7.08 µM. The polymyxin IC50 shift under setting [1] amounted to 1.55. Besides, under setting [2], the polymyxin IC50 shift was -3.93. For the same molecule, for the setting “phoP- polymyxin IC50 at 150 uM”, the polymyxin IC50 is 2.62 µM.
In the case of `O=C1C2=C(Nc3ccccc3SC2c2ccsc2)c2ccccc21` (centres undefined), the polymyxin IC50 shift difference (WT - phoP-) was -25.9 (inactive). Further, the polymyxin IC50 (WT polymyxin IC50 at 150 uM) stood at 21.5 µM. Besides, under setting [1], the polymyxin IC50 shift was 6.12. Moreover, under setting [2], the polymyxin IC50 shift is -19.7.
As for `CCn1cc(C(=O)O)c(=O)c2cc(F)c(N3CCN(C(=S)Nc4ccccc4C(F)(F)F)CC3)cc21`, the polymyxin IC50 shift difference (WT - phoP-) is -9.73 (inactive). The polymyxin IC50 (WT polymyxin IC50 at 150 uM) was found to be 2.53 µM. Further, the polymyxin IC50 shift under setting [1] amounted to 9.16. In addition, the polymyxin IC50 shift under setting [2] was -0.568. The polymyxin IC50 (phoP- polymyxin IC50 at 150 uM) stood at 2.76 µM.
Turning to `O=C1C2=C(Nc3ccccc3SC2c2ccc(I)cc2)c2ccccc21` (centres undefined), the polymyxin IC50 shift difference (WT - phoP-) is -8.99 (inactive). Also, for the setting “WT polymyxin IC50 at 150 uM”, the polymyxin IC50 was 25.8 µM. In addition, under setting [1], the polymyxin IC50 shift worked out at 1.81. The polymyxin IC50 shift under setting [2] is -7.18. Further, where the note is “phoP- polymyxin IC50 at 150 uM”, the polymyxin IC50 was 0.04 µM.
With `COc1cccc(C2Sc3ccccc3NC3=C2C(=O)c2ccccc23)c1` (centres undefined), the polymyxin IC50 shift difference (WT - phoP-) is -3.66 (inactive). Further, the polymyxin IC50 (WT polymyxin IC50 at 150 uM) was 2.58 µM. In addition, the polymyxin IC50 shift under setting [1] was found to be 4.99. The polymyxin IC50 shift under setting [2] was found to be 1.33. Also, the polymyxin IC50 (phoP- polymyxin IC50 at 150 uM) turned out to be 11.2 µM.
For `COc1ccc(CNC(=S)Nc2ccncc2)cc1` the same measures were -2.86 (inactive), 5.14 µM, -0.186, -3.04 and 4.55 µM.
